Experiments:
[1] = cited from earlier work
[2] = cited from earlier work; remark: listed apart in the source
rabbits = details: fetuses; cited from earlier work
subjects with ADH1 [3] = test: Phase 2b open-label dose-ranging study, Period 2; assay type: in vivo, human
Procedure: Period 2: an inpatient stay that consists of 5 dosing days during which subjects will receive BID doses of CLTX-305 based on individual responses from Period 1 (for subjects who complete Period 1) or review of aggregate data from Period 1 (for subjects in Cohort 2 entering Period 2 without prior exposure to CLTX-305). The initial dose, dose level 1 (DL1) will be administered for 2 days (48 hours) with cCa monitoring. Participants will undergo encaleret dose up- or down-titration depending on cCa levels, with a potential increase in dose if cCa remains below the lower limit of normal and potential decrease in dose if cCa is greater than or equal to the upper limit of normal. A final test day (Day 5) will include frequent blood and urine sampling to collect 24-hour PK/PD profiles after at least 3 consecutive days of dosing (at either DL1 or DL2).
In Period 2, eligible Cohort 1 subjects, who have completed Period 1, may return after at least 8 weeks for admission to NIH for Period 2. After all Cohort 1 subjects have finished Period 1 and the data analyzed, the Sponsor will open enrolment for Cohort 2 subjects. Eligible Cohort 2 subjects may enroll directly into Period 2, after completing the screening and consent process per protocol. In Period 2 all subjects will initiate CLTX-305 BID dosing given within 30 minutes prior to breakfast and dinner on Days 1 and 2. cCa concentrations will be monitored frequently throughout Period 2, and CLTX-305 doses will be up- or down-titrated as needed to target normal cCa concentrations. Assessment of the 24-hour PK/PD profile of CLTX-305 with BID dosing will be conducted on Day 5.
As a result, all remaining subjects in Period 2 will receive an initial CLTX-305 90 mg BID dose for at least 3-4 doses for evaluation of safety, tolerability and the ability to modulate cCa levels. The CLTX-305 dose will be up- or down-titrated as needed to maintain cCa levels below 10 mg/dL and blood phosphorus levels above the lower limit of normal. […]

subjects with ADH1 [4] = test: Phase 2b open-label dose-ranging study, Period 1 / Cohort 1; assay type: in vivo, human
Text: A Phase 2b, open-label dose-ranging study is designed to evaluate the safety, tolerability, and efficacy of CLTX-305 to maintain normalized albumin-corrected blood calcium (cCa) in subjects with hypocalcemia due to ADH1. An overview scheme of the Phase 2b study is illustrated in FIG. 2.
Period 1: an inpatient stay that consists of 5 dosing days during which subjects will undergo a once-daily (QD) dose escalation for 3 days followed by 2 days of twice daily (BID) dosing at an individualized test dose of CLTX-305.
In Period 1, eligible Cohort 1 subjects are admitted to the NIH CC after completing screening tests. On days 1-3 of admission, Cohort 1 subjects will undergo single daily dosing and protocol-specified dose-escalation of CLTX-305 from the initial dose of 30 mg on Day 1, increasing to a maximum dose of 180 mg on Day 3. Based on the individualized responses to QD dose escalation an individualized dose of CLTX-305 will be chosen for BID administration on Days 4 and 5.
Days 1, 2 and 3 (QD Dose Escalations): Up to 8 subjects (minimum of 5) will undergo a single-dose, dose-escalation over the first 3 days of admission in Period 1. Morning doses will be administered on Days 1, 2 and 3, respectively, accompanied by frequent blood and urine sampling for 24-hours for PK/PD measures. CLTX-305 will be administered in the morning within 30 minutes prior to breakfast. If dose escalation is limited due to tolerability or hypercalcemia, then the investigator, in consultation with sponsor, may choose to interrupt the pre-specified dose escalation. In this case, the investigator, in consultation with sponsor, may choose to repeat the last well tolerated dose on Days 2 and 3, or titrate down as appropriate.
Days 4 and 5 (BID Dose Escalation): Based on each subject's individual PD responses to QD dose-escalation, an individualized dose of CLTX-305 will be chosen for BID dosing on Days 4 and 5. CLTX-305 will be administered once in the morning and once in the evening, within 30 minutes prior to breakfast and dinner. The dose selected should be based on each subject's response in cCa and/or PTH levels during the prior QD dosing (Days 1-3).
Days 1, 2 and 3 (QD Dose Escalations): Up to 8 subjects (minimum of 5) will undergo a single-dose, dose-escalation over the first 3 days of admission. Morning doses of 30, 90 and 180 mg will be administered on Days 1, 2 and 3, respectively, accompanied by frequent blood and urine sampling for 24-hours for PK/PD measures (For details of PK/PD assays and timepoints as shown in Table 4A-Table 4C, Table 5, and Table 6A-Table 6C CLTX-305 will be administered in the morning, with water, within 30 minutes prior to breakfast. If dose escalation is limited due to tolerability or hypercalcemia, the investigator, in consultation with sponsor, may choose to repeat the last well-tolerated dose on Days 2 and 3, or down-titrate, as appropriate (See below for dosing guidance algorithm).
In order to characterize both the pre-study calcemic status as well as changes associated with experimental interventions, the protocol will rely on frequent measurement of albumin-corrected blood calcium concentrations. Assays will be conducted according to specifications of the NIH Clinical Center Laboratory, Bethesda, Md. The main indicator of normal versus abnormal blood calcium levels will be based on the correction for serum or plasma albumin according to the formula corrected calcium (cCa)=measured total calcium (mg/dL)+0.8(4−albumin (g/dL)) OR measured total calcium (mmol/L)+0.2(4−albumin (g/dL)), recognizing that the total calcium reported in SI units (mmol/L) can be converted to conventional units (mg/dL) by multiplying by 4. Given that enrolled subjects are expected to have both normal and stable albumin levels, the measures of total calcium and cCa are likely to be similar throughout the time course of this study. […]

[5] = test system: healthy volunteers and postmenopausal women with osteoporosis; details: cited from earlier work
healthy subjects = details: single oral dose of up to 100 mg; cited from earlier work
[6] = non-clinical data; cited from earlier work
[7] = preclinical; dose-limiting effects were mechanism-based serum calcium elevations; cited from earlier work
CaSR = target: T1, CaSR (Homo sapiens, UniProt P41180); details: cell-based assays at 2 mM extracellular calcium; read-out: IC50, inhibition of the CaSR via allosteric modulation; cited from earlier work
T1 sequence (P41180 20-1078): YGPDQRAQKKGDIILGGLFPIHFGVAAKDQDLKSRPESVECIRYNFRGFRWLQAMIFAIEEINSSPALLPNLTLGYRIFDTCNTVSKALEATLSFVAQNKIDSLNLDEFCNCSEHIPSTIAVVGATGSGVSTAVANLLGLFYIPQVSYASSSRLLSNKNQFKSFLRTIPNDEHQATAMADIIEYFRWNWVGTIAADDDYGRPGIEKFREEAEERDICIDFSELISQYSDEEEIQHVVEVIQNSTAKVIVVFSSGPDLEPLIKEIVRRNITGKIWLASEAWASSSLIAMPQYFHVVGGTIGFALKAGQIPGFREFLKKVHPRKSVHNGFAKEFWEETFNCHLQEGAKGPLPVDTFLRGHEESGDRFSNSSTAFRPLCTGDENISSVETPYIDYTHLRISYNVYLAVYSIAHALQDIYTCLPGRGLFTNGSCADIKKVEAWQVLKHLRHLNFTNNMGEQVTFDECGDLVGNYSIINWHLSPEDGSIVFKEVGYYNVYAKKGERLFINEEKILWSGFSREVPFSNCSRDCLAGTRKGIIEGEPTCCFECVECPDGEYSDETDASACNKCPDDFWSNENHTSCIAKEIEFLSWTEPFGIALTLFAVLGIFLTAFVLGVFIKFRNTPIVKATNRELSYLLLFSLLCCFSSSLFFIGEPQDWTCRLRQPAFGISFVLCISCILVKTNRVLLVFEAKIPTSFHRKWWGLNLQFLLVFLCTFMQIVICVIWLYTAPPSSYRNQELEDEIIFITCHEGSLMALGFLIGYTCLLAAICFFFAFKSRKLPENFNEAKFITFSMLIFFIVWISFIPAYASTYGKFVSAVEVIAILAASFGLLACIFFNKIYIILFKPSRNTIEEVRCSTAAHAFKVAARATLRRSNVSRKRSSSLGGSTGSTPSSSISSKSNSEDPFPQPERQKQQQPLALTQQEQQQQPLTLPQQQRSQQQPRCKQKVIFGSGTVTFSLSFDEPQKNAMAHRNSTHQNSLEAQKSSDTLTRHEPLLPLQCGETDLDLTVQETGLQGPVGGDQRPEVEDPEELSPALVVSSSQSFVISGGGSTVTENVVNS

subjects with ADH1 [8] = details: subjects with ADH1, sample size of 5; cited from earlier work
[9] = humans, most single doses or steady-state
[10] = not significant when body weight taken into account

SMILES: Cc1cc(-c2ccccc2[C@@H](C)OC[C@H](O)CNC(C)(C)Cc2ccc(Cl)c(F)c2)ccc1C(=O)O [CLTX-305, encaleret]
- increase in AUC0-24 on co-administration with ketoconazole [1]: approximately 2 ×
- increase in Cmax on co-administration with ketoconazole [1]: approximately 1.67 ×
- dose proportionality of plasma concentrations ([2]; 5, 10, 15, 30, 50 and 100 mg, fasted state): Dose-proportional increases
- age-related or race differences in pharmacokinetics ([2]; US population vs. Japanese subjects): No significant age-related or race differences
- half-life of CLTX-305 at steady state ([2]; as stated in the study assessment section): 10 to 14 h
- food effect on plasma concentrations ([2]; dose range 5-100 mg): without significant food effect
- tmax median [2, 9]: 1.5 h
- tmax range [2, 9]: 0.75 to 3 h
- elimination half-life (t1/2) after single doses ([2]; humans, single doses): approximately 6.5 hours
- elimination half-life (t1/2) at steady state ([2]; humans, steady state (14 days)): 11 to 14 h
- excretion of unchanged CLTX-305 and metabolites into urine ([2]; humans, total of parent and metabolite): < 5%
- AUC higher in females [2, 10]: approximately 37%
- Cmax higher in females [2, 10]: ~30%
- accumulation ([2]; once daily (QD) for two weeks, Japanese postmenopausal women): minimal accumulation
- dose at which incidence of fetal skeletal anomalies (fusion of the sternebra) was increased (rabbits): ≥ 30 mg/kg
- serious adverse events (subjects with ADH1 [3]; Period 2 (Periods 1 and 2)): no serious adverse events reported
- tolerability (subjects with ADH1 [3]; Period 2 (Periods 1 and 2), once or twice daily over 5 days): well-tolerated
- Number of AEs (subjects with ADH1 [3]; Period 2, n=13): 12 n
- serious adverse events (subjects with ADH1 [4]; Period 1): no serious adverse events reported
- plasma exposure, dose relation (FIG. 8) (subjects with ADH1 [4]; Period 1, 30-180 mg): dose proportional increase in plasma exposure
- Number of AEs (subjects with ADH1 [4]; Period 1, N=6): 9 n
- tolerability (subjects with ADH1 [4]; Period 1, escalating oral doses once or twice daily over 5 days): well-tolerated
- PTH, mean level over 24 hours by day 5 (subjects with ADH1 [4]; Period 1, n=6, mean±SD, baseline 3.4±4.5): 64.8 ± 49.6 pg/mL
- Magnesium, 24-hour day 5 mean (subjects with ADH1 [4]; Period 1, n=6, baseline 1.6±0.4): 2.0 ± 0.5 mg/dL
- Phosphorus, 24-hour day 5 mean (subjects with ADH1 [4]; Period 1, n=6, baseline 4.5±0.7): 2.9 ± 0.5 mg/dL
- Albumin-corrected blood calcium (cCa), 24-hour mean on day 5 (subjects with ADH1 [4]; Period 1, n=6, baseline 7.6±0.6): 9.0 ± 0.5 mg/dL
- Twenty-four hour urine calcium on day 5 (subjects with ADH1 [4]; Period 1, n=6, screening 436±255 on conventional therapy): 63 ± 127 mg/day
- subjects in whom urinary calcium excretion became normal (subjects with ADH1 [4]; Period 1, of 6): 3 subjects
- subjects in whom urinary calcium excretion became undetectable (subjects with ADH1 [4]; Period 1, of 6): 3 subjects
- acute safety and tolerability ([5]; 5-100 mg, non-ADH1 subjects): acutely safe and well tolerated
- safety issues or signals ([5]; acute dosing up to 100 mg, chronic dosing up to 15 mg QD, over 1300 healthy males and post-menopausal women): no specific safety issues or signals were seen
- subjects with blood calcium above the upper limit of the laboratory reference range ([5]; chronic once-daily dosing up to 15 mg, postmenopausal women, long-term trials): up to 30%
- serious adverse events related to hyper- or hypocalcemia ([5]; osteoporosis program, postmenopausal women): No serious adverse events (SAEs)
- tolerability in humans during chronic treatment ([5]; up to and beyond 12 months): generally well tolerated
- QTc prolongation (healthy subjects): no clinically meaningful QTc prolongation
- main route of elimination [6]: fecal excretion was the main route of elimination
- off-target or organ-specific toxicities [7]: no off-target or other tissue or organ-specific toxicities were identified
- IC50 (CaSR): 86.2 nM

SMILES: CC(C)(CC1Cc2ccccc2C1)NC[C@@H](O)COc1cc(CCC(=O)O)ccc1C#N [NPSP795]
- dose-response on iPTH (subjects with ADH1 [8]): preliminary evidence for a dose-response on iPTH
